# Residues, ends and D or L forms follow the SMILES beside them.
row,melting point [°C],Structure (SMILES)
1,87 to 88,CCOC(=O)C(CC=Cc1ccc(Cl)cc1)S(=O)(=O)c1ccc(C)cc1 (stereo unspecified)
2,> 240,CC(C)n1nc(-c2c(-c3ccccc3)nn3ccc(N4CCN(c5ccccc5)CC4)cc23)ccc1=O
3,104 to 105,COc1ccc(N2CCC(=O)C2)cc1
4,95 to 96,O=C(O)CNC(=O)CSCCCCc1ccc2c(c1)OCO2
5,118 to 120,CCOC(=O)c1ccc(C=C(C)c2cc3c(s2)C(C)(C)CCC3(C)C)cc1
6,> 250,CCOCc1nc2c(c(C)c(C)n3nnnc23)n1CCNC(=O)Nc1ccccc1
7,> 250,CC(=O)Nc1ccc2c(O)c(C(=O)NCc3ccc(Cl)cc3)cnc2c1
8,210,CC#CCOc1ccc(S(=O)(=O)C2(C(=O)NO)CCOCC2)cc1
9,215,O=C(O)c1c(Br)nc(-c2ccccc2)n1Cc1cc2c(cc1Cl)OCO2
10,99.5 to 100,CCCCn1c(-c2ccc(OC)cc2)nc2c3ccccc3ccc21
11,168 to 169,Sc1ncc(CCCCc2ccccc2)[nH]1
12,113 to 116,O=C(NCC1(O)CCCCCC1)c1cc(-c2ccccc2C(=O)O)ccc1Cl
13,182 to 184,CCCCc1ncc(/C=C(\Cc2cccs2)C(N)=O)n1Cc1ccccc1Cl
14,208 to 209,CCn1c(=O)[nH]c2c(C)nn(CC)c2c1=O
15,94 to 96,Cc1c(Cl)c(Oc2ncc(C(F)(F)F)cc2Cl)nn1C(=O)NC1CCCCC1
16,115 to 117,CC(=O)Nc1nc(-c2ccc(F)c3ccccc23)cc(C(C)C)n1
17,115 to 117,CC1(CCC(O)(c2ccccc2)c2ccccc2)CCCCC12OCCO2 (stereo unspecified)
18,232 to 233,CC(=O)Nc1ccc(S(=O)(=O)NCC(O)(Cn2cncn2)c2ccc(Cl)cc2Cl)cc1 (stereo unspecified)
19,129 to 131,CCOCCc1ccc(OCCN(C(=O)n2cncn2)c2ncnc3sc(CC)cc23)c(C)c1
20,172 to 175,CCCOCCN(CC)c1ccc(-c2ccc3c(c2)C=C(C(=O)Nc2ccc(CN(C)C4CCOCC4)cc2)CCS3(=O)=O)cc1
21,77 to 80,CCCCC1C(C(=O)OCC)C(O)(C(F)(F)F)NC(O)(C(F)(F)F)C1C(=O)OCC (stereo unspecified)
22,125 to 126,CC(C)(C)OC(=O)N1CCC(c2c(F)cc(N3C[C@H](COS(C)(=O)=O)OC3=O)cc2F)CC1
23,197 to 200,CCCn1nc2c(N)nc3ccccc3c2c1CC(C)(C)OCCS(C)(=O)=O
24,201 to 202,COc1ccc(C2=NN(C3CCCC3)C(=O)[C@H]3CC=CC[C@@H]23)cc1Cl (relative stereo)
25,92 to 94,CN1CCC(c2ccc(OC(C)(C)CO)cc2)c2ccccc21 (stereo unspecified)

row,melting point [°C],Structure (SMILES)
1,126 to 128,CCC(Oc1ccc(CCC(=O)c2ccc(-c3ccc(C(F)(F)F)cc3)s2)cc1Br)C(=O)O (stereo unspecified)
2,71 to 73,COc1ccc(CCCOc2c(C)cc(-c3noc(C)n3)cc2C)cn1
3,247,CC1CCN(c2c(-c3ccc(F)cc3Cl)c(C#N)nc3ncnn23)CC1
4,140 to 141,O=C(Nc1nc2ccccc2s1)c1ccccc1C(c1ccc(O)cc1)c1ccc(O)cc1
5,231,CS(=O)(=O)c1cccc(-c2cn(-c3nc(-c4ccc(C(F)(F)F)cc4)cc(C(F)(F)F)n3)cn2)c1
6,106 to 108,C=CCOc1ccc(C[C@H](NC(=O)OC(C)(C)C)C(=O)N[C@H](C(=O)N[C@@H](CC=C)C(=O)OC)C(C)C)cc1
7,149 to 151,COC(=O)C1=C(C)NC(C)=C(C(=O)OC)C1c1ccccc1COC(C)=O
8,60 to 61,COc1ccc(CC(=O)NO[C@@H](C)c2ccccc2)cc1
9,107,CN(C)C(=O)c1c([N+](=O)[O-])cccc1S(=O)(=O)N(C)CCO
10,> 320,NC(=O)N[C@H]1CC[C@H](NC(N)=O)CC1
11,209 to 211,CCS(=O)(=O)Nc1cc(-n2nc3n(c2=O)CCS3)c(F)cc1C#N
12,294 to 295,N#Cc1ccc(-c2ccc(-c3ccc(C#N)cc3)o2)cc1
13,134 to 136,CCCOc1ccccc1-c1cccc(=O)[nH]1
14,90 to 92,COc1cccc2c(Cl)c(C(=O)C(C)C)cnc12
15,101 to 103,COc1ccc(-n2nc(C(O)c3ccccc3)cc2-c2ccc(C)cc2)cc1 (stereo unspecified)
16,57.8 to 58.5,COc1cc(C(C)=O)ccc1OCCCCl
17,158 to 159,O=C(O)c1cn(OCC2CN(Cc3ccccc3)CCN2Cc2ccccc2)c2cc(F)c(F)cc2c1=O (stereo unspecified)
18,119 to 120,COCCOc1cc(N)c(Cl)cc1C(=O)O
19,178 to 179,CCCCNc1ncn(-c2c(CC)cccc2CC)c(=O)n1
20,124 to 127,COc1ccc(-c2cc(=O)n(Cc3ccc(Cl)cc3)nc2-c2ccc(OC)cc2)cc1
21,132 to 134,O=C(c1ccc(Cl)cc1)c1ccc2c(c1)C(=O)N(Cc1cccnc1)C2=O
22,148 to 149,NS(=O)(=O)c1cnc(C2CC2=O)s1 (stereo unspecified)
23,158 to 159,CCCOc1ccc(S(=O)(=O)N2CCN(CCO)CC2)cc1-c1nc2c(CCC)nn(C)c2c(=O)[nH]1
24,81 to 83,CCCC(C)(Cl)Cn1ncc(OCc2ccc(CC)cc2)c(Cl)c1=O (stereo unspecified)
25,171 to 173,COCCN(C)CC(=O)N(C)Cc1ccc(C(=O)Nc2nc3c(OC)ccc(N4CCOCC4)c3s2)cc1

# Further lines, the compound ahead of its results:
row,Structure (SMILES),melting point [°C]
1,Cc1cc(C(N)=O)nn1CCO,170 to 172
2,O=C(c1ccccc1)c1ccc(CCl)cc1,109 to 111
3,CCOC(=O)COc1ccc([N+](=O)[O-])c(C=C2NC(=O)NC2=O)c1,268 to 270
4,COc1cc2ncnc(N3CCc4cc(F)ccc43)c2cc1OC,190 to 191
5,CCCOc1c(OC)cc(C(=O)Cl)cc1[N+](=O)[O-],180 to 184
6,CC(C)(C)OC(=O)CN1C(=O)C(=O)c2ccccc21,119 to 121
7,COc1cccc(NC(=O)c2ccc([N+](=O)[O-])cc2)c1,189 to 191
8,N#Cc1cc(C(=O)NNC(=O)c2occc2-c2ccccc2Oc2ccccc2)ccc1O,134 to 135
9,Cc1csc2c(=O)n(CCC(C(=O)NO)N(C)S(=O)(=O)c3ccc(Oc4ccccc4)cc3)c(=O)[nH]c12 (stereo unspecified),170 to 171
10,N#Cc1c(N)c(C#N)c(-c2ccccc2)c2c1CCC2,148 to 149
11,Cc1nc2c3c(ccc2n1C)[C@@H](OCC(F)F)[C@H](O)[C@@H](c1ccccc1)O3,249
12,NC(=O)c1c(Cl)c(-c2ccccc2)n2c1CN(C(=O)N1CCOCC1)CC2,219 to 220
13,CCCCOc1c(CNC(=O)OC(C)(C)C)n(CC2CC2)c(=O)c2ccc(-c3cnco3)cc12,160 to 161
14,CC(C)(C)OC(=O)[C@H]1C[C@@H](C(=O)OCc2ccccc2)[C@@H](c2ccccc2)N1 (racemic),70
15,Cc1ccc(S(=O)(=O)N2[C@@H](CC#N)CC[C@H]2c2ccc(F)cc2)cc1 (racemic),116
16,CCCCCCCCCCCOc1ccc(C(=O)O)cc1OCCCCCCCCCCC,98 to 101
17,CC(C)(C)COc1cccc(C[C@H](N)[C@H](O)c2cccc(Cl)c2)c1 (racemic),115 to 116
18,CCOC(=O)COC1CCN(C(=O)[C@H](C)NC(=O)c2ccc(C(N)=NO)cc2)CC1,212 to 213
19,CCN(CC)C(=O)c1ccc(C)c(-c2nc(S(C)(=O)=O)nc3c2CNC(=O)N3c2c(F)cccc2F)c1,132 to 135
20,OCCCCOc1cnc(-c2ccccc2)c(-c2ccccc2)n1,93 to 95
21,CSCCC(N)C(=O)NC(CCSC)C(=O)O (stereo not drawn) (H-Met-Met-OH; configuration not given here),234 to 236
22,O=C(Nc1ccc(S(=O)(=O)N2CCC(CNC[C@H](O)COc3ccc(O)cc3)CC2)cc1)Nc1ccccn1,189
23,CCNC(=S)NCCSCc1[nH]cnc1C,140 to 141

row,Structure (SMILES),melting point [°C]
1,CC12CCC3c4ccc(OCc5ccccc5)c([N+](=O)[O-])c4CCC3C1CCC2=O (stereo unspecified),198 to 199
2,CCCc1nn(-c2ccc(C(F)(F)F)cn2)cc1CCCOc1c(CC(=O)O)cccc1OCC,133 to 134
3,FC(F)(F)Oc1ccc(C2N=C(Nc3cccc(-c4cncnc4)c3)n3ccnc32)cc1 (stereo unspecified),120 to 130
4,N#CCc1nn(-c2ccccn2)c(N)c1C#N,178 to 179
5,FC(F)C(F)(F)Sc1nc(-c2ccccc2)c(-c2ccccc2)n1COCc1ccccc1,70 to 70.5
6,CCOC1=CC2=CCC3C4CCC(=O)C4(C)CCC3C2(C)CC1 (stereo unspecified),146 to 149
7,COC(=O)C(C)=CC=P(c1ccccc1)(c1ccccc1)c1ccccc1,145 to 150
8,Cc1nc2ccc3c(c2o1)OC(CN1C2CCC1CC(O)(c1ccc4ccccc4c1)C2)CO3 (stereo unspecified),192 to 195
9,N#Cc1c(N2CCNCC2)c2cc(F)ccc2n(Cc2ccc(F)cc2)c1=O,240
10,C=C(C)c1cccc2c(C(=O)O)cccc12,138 to 140
11,N#Cc1ccc(N=CNc2ccc(C#N)cc2)cc1,214 to 217
12,CN(C)c1nc(-c2ccc(Cl)cc2)c(CCC(=O)O)o1,189 to 190
13,O=C1C=C(c2cccc(C(F)(F)F)c2)CO1,124 to 125
14,CC(=S)NC[C@H]1CN(c2ccc(N3CCC(n4ccnn4)CC3)c(F)c2)C(=O)O1,171 to 172
15,O=C(Nc1ccc(F)c(C(F)(F)F)c1)N1COc2cc(OCc3ccccc3)ccc21,144 to 146
16,OCc1cc(CO)c(O)c(-c2ccccc2)c1,105 to 110
17,Nc1cc(C(=O)O)cc(OCc2ccccn2)c1C(=O)c1ccccc1,212 to 213
18,O=C(NCCO)c1cccc(-c2cccc3cc(Cc4cccc(F)c4)oc23)c1,159 to 160
19,CCCc1c(C(=O)C(C)C)c2ccc(C(N)=O)cc2n1Cc1ccc(Cl)cc1F,200 to 202
20,N#CC(C(N)=O)c1ccccc1[N+](=O)[O-] (stereo unspecified),172 to 174
21,O=C(CCNc1c(C(=O)O)[nH]c2cc(Cl)cc(Cl)c12)c1ccc(Cl)cc1,279 to 283
22,O=C(O)C1C=Nc2c(ccc3cc(C(=O)N4CCc5ccccc5C4)cnc23)C1=O (stereo unspecified),171 to 182
23,O=C(NCc1cccnc1)c1ccc2n1Cc1ccccc1N(C(=O)c1ccc(-c3ccccc3C=NO)cc1)C2,165 to 167
